{
  "source": "patent US20040006136A1",
  "about": "“Anthelmintics for preventing parasitic infections in human and animals” (priority 2000, published 2004)",
  "key": {"[1]": {"test_system": "Schistosoma mansoni cercariae", "assay": "Activity against Schistosoma mansoni cercariae (survival/mobility in water)", "type": "cell-based", "conditions": "500 μl/l final concentration of the active compound; PEG300/aquarium water; test period of 120 minutes", "procedure": "Activity Against Schistosoma mansoni cercariae\n[500 μl/l Final Concentration of the Active Compounds]\nSnails (Biomphalaria glabrata) were infected by incubating each of them with 8 miracidia in 10 ml of water overnight. About 6 to 9 weeks after the infection, cercariae were obtained by irradiating the snails, which had been kept in darkness, with light, followed by collection of the swarming cercariae within 2 hours.\nSuch an amount of cercariae-containing water (1 or 2 ml, see below) was added to the test batches that each batch contained about 100 to 150 cercariae.\n5 μl of active compound were mixed thoroughly with 25 μl of PEG300. 9 ml of aquarium water was then added, and the batch was shaken vigorously. After (delayed) addition of 1 ml of cercariae suspension, survival of the cercariae was in each case observed immediately using a stereomagnifier."}, "[2]": {"test_system": "cercariae of Schistosoma mansoni", "conditions": "topical agent; Salafsky et al. 1998; cited from earlier work"}, "[3]": {"test_system": "cercariae of Schistosoma mansoni", "conditions": "topical, monkeys; Bruce et al. 1992; cited from earlier work"}, "[4]": {"test_system": "cercariae of Schistosoma mansoni", "conditions": "Fripp and Armstrong 1973; cited from earlier work"}},
  "data": [
    {"smiles": "CCCCOC(=O)CN(CCCC)C(C)=O", "values": [
      {"measurement": "activity of the active compounds against cercariae (classification 0-3)", "setting": "[1]", "result": 1}
    ]},
    {"smiles": "CCN(CC)C(=O)c1cccc(C)c1", "note": "[N,N-Diethyl-m-toluamide (DEET), N,N-Diethyl-m-toluamide]", "values": [
      {"measurement": "action against cercariae of Schistosoma mansoni", "setting": "[2]", "result": "acts against cercariae"}
    ]},
    {"smiles": "O=C(Nc1ccc([N+](=O)[O-])cc1Cl)c1cc(Cl)ccc1O", "note": "[Niclosamide]", "values": [
      {"measurement": "action against the penetration of cercariae", "setting": "[3]", "result": "acts against the penetration of cercariae"}
    ]},
    {"smiles": "Oc1c(Cl)cc(Cl)c(Cl)c1Cc1c(O)c(Cl)cc(Cl)c1Cl", "note": "[hexachlorophene]", "values": [
      {"measurement": "effect on cercariae of Schistosoma mansoni", "setting": "[4]", "result": "lethal effect"}
    ]}
  ]
}
